Measured values: PubChem BioAssay (NCI)
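Dose response: 5 concentrations. Exposure: 48 h. Format: 96-well plates. Endpoint: linear interpolation; highest concentration if not reached. Definition used: TGI = concentration required for complete inhibition of growth.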

Tests used:
Test in all cases: inhibition of tumour cell growth, NCI panel, 48 h
[1] = tested on: U251 CNS
[2] = tested on: NCI-H460 lung
[3] = tested on: OVCAR-4 ovarian
[4] = tested on: A549 NSCLC
[5] = tested on: TK-10 renal
[6] = tested on: HCT-116 colon
[7] = tested on: K-562 leukemia
[8] = tested on: RPMI-8226 leukemia
[9] = tested on: SF-295 CNS
[10] = tested on: HOP-92 NSCLC
[11] = tested on: MALME-3M melanoma
[12] = tested on: MCF7 breast

COC(=O)c1ccc(/C=C2\N=C(C)OC2=O)cc1 was tested, and the TGI [1] was over 100 µM, the TGI [2] was over 100 µM and the TGI [3] was over 100 µM. The TGI [4] was over 100 µM, the TGI [5] was over 100 µM and the TGI [6] was over 100 µM. For the same compound, the TGI [7] was over 100 µM, the TGI [8] was over 100 µM and the TGI [9] was over 100 µM. The TGI [10] was over 100 µM.

Compound C=CCn1c(=O)n(CC=C)c(=O)n(CC=C)c1=O has a TGI [1] of over 100 µM, a TGI [2] of over 100 µM and a TGI [4] of over 100 µM. It also gave a TGI [5] of over 100 µM, a TGI [6] of over 100 µM and a TGI [7] of over 100 µM. The TGI [8] was over 100 µM, the TGI [9] was over 100 µM and the TGI [11] was over 100 µM. The TGI [10] was over 100 µM.

O=C1NC(=O)C(CCO)(c2ccccc2)C(=O)N1 gave a TGI [1] of over 100 µM, a TGI [2] of over 100 µM and a TGI [3] of over 100 µM. For the same compound, the TGI [4] was over 100 µM, the TGI [6] was over 100 µM and the TGI [7] was over 100 µM. It also gave a TGI [12] of over 100 µM, a TGI [9] of over 100 µM and a TGI [11] of over 100 µM. The TGI [10] was over 100 µM.

For O=C(c1ccccc1)c1c(-c2ccccc2)[nH]n(-c2ccc([N+](=O)[O-])cc2)c(=O)c1=O, the TGI [1] was over 100 µM, the TGI [2] was over 100 µM and the TGI [3] was over 100 µM. For the same compound, the TGI [4] was over 100 µM, the TGI [5] was over 100 µM and the TGI [6] was over 100 µM. For the same compound, the TGI [7] was over 100 µM, the TGI [12] was over 100 µM and the TGI [8] was over 100 µM. For the same compound, the TGI [9] was over 100 µM, the TGI [11] was over 100 µM and the TGI [10] was 50.9 µM.

In the case of Clc1ccc(Cl)c(Nc2ccnc(SCc3ccccc3)n2)c1, the TGI [1] is reported as over 100 µM, the TGI [2] is reported as over 100 µM and the TGI [3] is reported as over 100 µM. The TGI [4] was over 100 µM, the TGI [5] was over 100 µM and the TGI [6] was over 100 µM. The TGI [7] was over 100 µM, the TGI [12] was over 100 µM and the TGI [8] was over 100 µM. For the same compound, the TGI [9] was over 100 µM, the TGI [11] was over 100 µM and the TGI [10] was over 100 µM.

With Cc1cc(C)cc(C(=N)c2ccccc2Cc2cccc3ccccc23)c1 the TGI [1] was over 100 µM, the TGI [2] was 29.5 µM and the TGI [3] was 33.7 µM. The TGI [4] was 42.4 µM, the TGI [5] was 94.6 µM and the TGI [6] was 23.2 µM. It also gave a TGI [7] of 48.5 µM, a TGI [12] of 32.2 µM and a TGI [8] of 67 µM. It also gave a TGI [9] of 25.5 µM, a TGI [11] of 33.4 µM and a TGI [10] of 29 µM.

With CCOC(=O)c1csc(NC(=O)C(C)N2CCCCC2)n1 (configuration not stated) the TGI [1] was over 100 µM, the TGI [2] was over 100 µM and the TGI [3] was over 100 µM. For the same compound, the TGI [4] was over 100 µM, the TGI [5] was over 100 µM and the TGI [7] was over 100 µM. The TGI [12] was over 100 µM, the TGI [8] was over 100 µM and the TGI [9] was over 100 µM. The TGI [11] was over 100 µM and the TGI [10] was over 100 µM.

With COc1ccc(C[N+]23C(CC[C@H]2c2ccccc2)CC[C@H]3c2ccccc2)cc1 (some centres not stated) the TGI [1] was over 100 µM, the TGI [3] was 84.1 µM and the TGI [4] was over 100 µM. It also gave a TGI [5] of over 100 µM, a TGI [6] of over 100 µM and a TGI [7] of over 100 µM. It also gave a TGI [12] of 78.9 µM, a TGI [8] of 27 µM and a TGI [9] of 61.7 µM. For the same compound, the TGI [11] was 30.8 µM and the TGI [10] was 39.5 µM.

COc1ccnc2c1C(=O)c1nc3ccccc3c3ccnc-2c13 showed a TGI [1] of 0.61 µM, a TGI [2] of 0.139 µM and a TGI [3] of 2.65 µM. For the same compound, the TGI [4] was 2.02 µM, the TGI [5] was 1.13 µM and the TGI [6] was 1.03 µM. For the same compound, the TGI [7] was 0.653 µM, the TGI [12] was 0.298 µM and the TGI [8] was 0.526 µM. For the same compound, the TGI [9] was 1.15 µM and the TGI [11] was 1.3 µM.

For O=c1c(-c2ccccc2)c(SCCCN2CCN(c3cccc(Cl)c3)CC2)n(-c2ccccc2)c(=S)n1-c1ccccc1, the TGI [1] was over 100 µM, the TGI [2] was over 100 µM and the TGI [3] was over 100 µM. It also gave a TGI [5] of over 100 µM, a TGI [7] of over 100 µM and a TGI [12] of over 100 µM. For the same compound, the TGI [8] was over 100 µM, the TGI [9] was over 100 µM and the TGI [11] was over 100 µM. It also gave a TGI [10] of over 100 µM.

With C[C@H]1[C@H](C)CC[C@]2(C)CC[C@]3(C)C(=C[C@@H](O)[C@@H]4[C@@]5(C)[C@H](O)[C@@H](O)[C@H](O)C(C)(C)[C@@H]5CC[C@]43C)[C@H]12 the TGI [1] was over 100 µM, the TGI [2] was over 100 µM and the TGI [4] was over 100 µM. For the same compound, the TGI [6] was over 100 µM, the TGI [7] was over 100 µM and the TGI [12] was over 100 µM. The TGI [8] was over 100 µM and the TGI [9] was over 100 µM.
